Data reported in ChEMBL document CHEMBL3885881, “DrugMatrix”.

Organism: Rattus norvegicus
Assay: DrugMatrix - Regimen: Daily Repeat
Assay type: toxicity, organism-based, Sprague-Dawley
Parameters: regimen Daily Repeat, gender Male, age 6-8 weeks
Conditions: in vivo, po, route oral GAVAGE, vehicle 100 % WATER; for ABSOLUTE BASOPHIL / ABSOLUTE EOSINOPHIL / ABSOLUTE LYMPHOCYTE / ABSOLUTE MONOCYTE / ABSOLUTE SEGMENTED NEUTROPHIL / BASOPHIL / EOSINOPHIL / ERYTHROCYTE COUNT / HEMATOCRIT / HEMOGLOBIN / LEUKOCYTE COUNT / LYMPHOCYTE / MEAN CORPUSCULAR HEMOGLOBIN / MEAN CORPUSCULAR HEMOGLOBIN CONCENTRATION / MEAN CORPUSCULAR VOLUME / MONOCYTE / NEUTROPHIL / NUCLEATED RED BLOOD CELLS / PLATELET COUNT: tissue Blood; for ALANINE AMINOTRANSFERASE / ALBUMIN / ALKALINE PHOSPHATASE / ASPARTATE AMINOTRANSFERASE / BLOOD UREA NITROGEN / CARBON DIOXIDE / CHLORIDE / CHOLESTEROL / CREATINE PHOSPHOKINASE / CREATININE / GLUCOSE / LACTATE DEHYDROGENASE / LIPASE / PHOSPHORUS / POTASSIUM / SODIUM / TOTAL BILIRUBIN / TOTAL PROTEIN / URIC ACID: tissue Plasma
[1] = 0 mg/kg, 72 h, dose level Control, time 3 day
[2] = 0 mg/kg, 120 h, dose level Control, time 5 day
[3] = 6 mg/kg, 72 h, dose level Low, time 3 day

Which results are given for `CN1CCN(C(=O)OC2c3nccnc3C(=O)N2c2ccc(Cl)cn2)CC1` (centres undefined) [ZOPICLONE]?
ABSOLUTE BASOPHIL [1]: 0 CELLS/uL; ABSOLUTE EOSINOPHIL [1]: 86.33 CELLS/uL; ABSOLUTE LYMPHOCYTE [1]: 12090.17 CELLS/uL; ABSOLUTE MONOCYTE [1]: 166.67 CELLS/uL; ABSOLUTE SEGMENTED NEUTROPHIL [1]: 1090.17 CELLS/uL; BASOPHIL [1]: 0%; EOSINOPHIL [1]: 0.67%; ERYTHROCYTE COUNT [1]: 5.57 x10E6/uL; HEMATOCRIT [1]: 35.33%; HEMOGLOBIN [1]: 13.83 G/DL; LEUKOCYTE COUNT [1]: 13.43 x10E3/uL; LYMPHOCYTE [1]: 89.83%; MEAN CORPUSCULAR HEMOGLOBIN [1]: 24.88 pg; MEAN CORPUSCULAR HEMOGLOBIN CONCENTRATION [1]: 39.15 G/DL; MEAN CORPUSCULAR VOLUME [1]: 63.52 fL; MONOCYTE [1]: 1.17%; NEUTROPHIL [1]: 8.33%; NUCLEATED RED BLOOD CELLS [1]: 0 /100WBC; PLATELET COUNT [1]: 1181.33 x10E3/uL; ALANINE AMINOTRANSFERASE [1]: 48.33 u/L; ALBUMIN [1]: 4.1 G/DL; ALKALINE PHOSPHATASE [1]: 395 u/L; ASPARTATE AMINOTRANSFERASE [1]: 81.83 u/L; BLOOD UREA NITROGEN [1]: 15.83 mg/dL; CARBON DIOXIDE [1]: 24.17 mmol/L; CHLORIDE [1]: 103.83 MEQ/L; CHOLESTEROL [1]: 63.67 mg/dL; CREATINE PHOSPHOKINASE [1]: 372.83 u/L; CREATININE [1]: 0.18 mg/dL; GLUCOSE [1]: 173.83 mg/dL; LACTATE DEHYDROGENASE [1]: 188.33 u/L; LIPASE [1]: 9.5 u/L; PHOSPHORUS [1]: 11.95 mg/dL; POTASSIUM [1]: 5.99 MEQ/L; SODIUM [1]: 144.43 MEQ/L; TOTAL BILIRUBIN [1]: 0.15 mg/dL; TOTAL PROTEIN [1]: 5.95 G/DL; URIC ACID [1]: 1.82 mg/dL; ABSOLUTE BASOPHIL [2]: 0 CELLS/uL; ABSOLUTE EOSINOPHIL [2]: 26.67 CELLS/uL; ABSOLUTE LYMPHOCYTE [2]: 7583.83 CELLS/uL; ABSOLUTE MONOCYTE [2]: 131.33 CELLS/uL; ABSOLUTE SEGMENTED NEUTROPHIL [2]: 674.83 CELLS/uL; BASOPHIL [2]: 0%; EOSINOPHIL [2]: 0.33%; ERYTHROCYTE COUNT [2]: 5.78 x10E6/uL; HEMATOCRIT [2]: 36.48%; HEMOGLOBIN [2]: 14.03 G/DL; LEUKOCYTE COUNT [2]: 8.42 x10E3/uL; LYMPHOCYTE [2]: 89.83%; MEAN CORPUSCULAR HEMOGLOBIN [2]: 24.3 pg; MEAN CORPUSCULAR HEMOGLOBIN CONCENTRATION [2]: 38.52 G/DL; MEAN CORPUSCULAR VOLUME [2]: 63.15 fL; MONOCYTE [2]: 1.67%; NEUTROPHIL [2]: 8.17%; NUCLEATED RED BLOOD CELLS [2]: 0 /100WBC; PLATELET COUNT [2]: 1186.67 x10E3/uL; ALANINE AMINOTRANSFERASE [2]: 50.17 u/L; ALBUMIN [2]: 4.07 G/DL; ALKALINE PHOSPHATASE [2]: 367.5 u/L; ASPARTATE AMINOTRANSFERASE [2]: 81.67 u/L; BLOOD UREA NITROGEN [2]: 16.17 mg/dL; CARBON DIOXIDE [2]: 32.33 mmol/L; CHLORIDE [2]: 101.5 MEQ/L; CHOLESTEROL [2]: 65.33 mg/dL; CREATINE PHOSPHOKINASE [2]: 255.33 u/L; CREATININE [2]: 0.17 mg/dL; GLUCOSE [2]: 139.33 mg/dL; LACTATE DEHYDROGENASE [2]: 95 u/L; LIPASE [2]: 10.5 u/L; PHOSPHORUS [2]: 10.38 mg/dL; POTASSIUM [2]: 6.11 MEQ/L; SODIUM [2]: 145.55 MEQ/L; TOTAL BILIRUBIN [2]: 0.17 mg/dL; TOTAL PROTEIN [2]: 5.98 G/DL; URIC ACID [2]: 0.93 mg/dL; ABSOLUTE BASOPHIL [3]: 0 CELLS/uL; ABSOLUTE EOSINOPHIL [3]: 0 CELLS/uL; ABSOLUTE LYMPHOCYTE [3]: 14318.33 CELLS/uL; ABSOLUTE MONOCYTE [3]: 218 CELLS/uL; ABSOLUTE SEGMENTED NEUTROPHIL [3]: 1497 CELLS/uL; BASOPHIL [3]: 0%; EOSINOPHIL [3]: 0%; ERYTHROCYTE COUNT [3]: 5.61 x10E6/uL; HEMATOCRIT [3]: 35.47%; HEMOGLOBIN [3]: 13.67 G/DL; LEUKOCYTE COUNT [3]: 16.03 x10E3/uL; LYMPHOCYTE [3]: 89.33%; MEAN CORPUSCULAR HEMOGLOBIN [3]: 24.37 pg; MEAN CORPUSCULAR HEMOGLOBIN CONCENTRATION [3]: 38.53 G/DL; MEAN CORPUSCULAR VOLUME [3]: 63.23 fL; MONOCYTE [3]: 1.33%; NEUTROPHIL [3]: 9.33%; NUCLEATED RED BLOOD CELLS [3]: 0 /100WBC; PLATELET COUNT [3]: 1106.33 x10E3/uL; ALANINE AMINOTRANSFERASE [3]: 43.67 u/L; ALBUMIN [3]: 3.9 G/DL; ALKALINE PHOSPHATASE [3]: 402 u/L; ASPARTATE AMINOTRANSFERASE [3]: 70.33 u/L; BLOOD UREA NITROGEN [3]: 14.33 mg/dL; CARBON DIOXIDE [3]: 25.33 mmol/L; CHLORIDE [3]: 102 MEQ/L; CHOLESTEROL [3]: 72.33 mg/dL; CREATINE PHOSPHOKINASE [3]: 454.67 u/L; CREATININE [3]: 0.15 mg/dL; GLUCOSE [3]: 170.33 mg/dL; LACTATE DEHYDROGENASE [3]: 139 u/L; LIPASE [3]: 9 u/L; PHOSPHORUS [3]: 12.8 mg/dL; POTASSIUM [3]: 6.03 MEQ/L; SODIUM [3]: 142.73 MEQ/L; TOTAL BILIRUBIN [3]: 0.2 mg/dL; TOTAL PROTEIN [3]: 5.63 G/DL; URIC ACID [3]: 1.97 mg/dL
